{"source": "patent US20080160163A1", "about": "“Reduction of Digestibility of Phosphorus” (BAYER HEALTHCARE AG, priority 2005, published 2008)", "key": {"[1]": {"tested_on": "adult healthy domestic cats", "conditions": "0.3 and 3.0 g per kg of feed for two weeks", "source_text": "Within the context of a larger study, 24 adult healthy domestic cats of both genders, individually fed with a commercially available regular canned diet (‘Petley's Gourmet Supreme Beef Casserole’, PROMEAL (PTY) Ltd., containing 0.19% phosphorus corresponding to 1.13% phosphorus in the dry matter), were randomised to three equal groups of eight animals which were fed for two weeks with dose levels corresponding to 0, 0.3, and 3.0 grams of lanthanum carbonate octahydrate per kg of feed in their daily feed ration.\n(§1) During the study the amount of food consumed was recorded daily and the animals were observed daily for the possible occurrence of adverse events. In the faeces collected over a three-day sampling period at the end of the study, the phosphorus levels were measured. On comparing the dietary intake of phosphorus with the excretion of phosphorus in the faeces, the apparent phosphorus digestibility was calculated according to the following equation: […]"}, "[2]": {"tested_on": "adult healthy female beagle dogs", "conditions": "dogs, 1.75, 5.0 and 17.5 g per kg of feed", "source_text": "A total of twelve adult healthy female beagle dogs were individually fed with a commercially available regular canned feed (‘Eukanuba Adult with much lamb’, IAMs Pet Food Ltd., containing 0.25% of phosphorus corresponding to 1.09% phosphorus in the dry matter). At weekly intervals, their diet was supplemented with increasing amounts of lanthanum carbonate octahydrate, thus resulting in final concentrations of the feed additive of 0, 1.75, 5.0, and 17.5 g of lanthanum carbonate octahydrate per kg of feed.\nas §1, with “two-day” for “three-day”"}, "[3]": {"tested_on": "adult healthy domestic cats", "source_text": "Fifteen adult healthy domestic cats of both genders were individually fed with commercially available regular canned diet (Premium Pate rich in lamb, IAMS Pet Food GmbH & Co containing 0.26% of phosphorus corresponding to 1.13% phosphorus in the dry matter). The aim of the study was to assess the palatability and safety of lanthanum carbonate octahydrate especially in high doses. Therefore 10 cats were fed lanthanum carbonate octahydrate in their daily feed ration at increasing doses. The study began with a dose level of about 12-15 g per kg of feed (dry matter). The dose was doubled every two weeks up to a dose level of about 96-120 g per kg of feed (dry matter). Five cats were given the feed without any lanthanum carbonate octahydrate and served as controls.\nPalatability was assessed daily by observing the general acceptance of the feed. Tolerability and safety were assessed by measuring the blood serum phosphate levels and body weight at regular intervals as well as by daily observations concerning the health status and the possible occurrence of adverse events."}, "[4]": {"conditions": "up to a dose level of 1 g/kg of body weight (=about 108 mg per kg of dry feed)"}}, "data": [{"smiles": "O.O.O.O.O.O.O.O.O=C([O-])[O-].O=C([O-])[O-].O=C([O-])[O-].[La+3].[La+3]", "note": "[lanthanum carbonate octahydrate]", "values": [{"measurement": "tolerance in the study animals", "setting": "[1]", "value": "no negative effect"}, {"measurement": "apparent phosphorus digestibility", "setting": "[1]; FIG. 1.2", "value": "corresponding decrease"}, {"measurement": "phosphorus content in the faeces", "setting": "[1]; faeces collected over three days, FIG. 1.1", "value": "dose-dependently increased"}, {"measurement": "tolerance in the study animals", "setting": "[2]", "value": "no negative effect"}, {"measurement": "apparent phosphorus digestibility", "setting": "[2]; FIG. 2.2", "value": "corresponding decrease"}, {"measurement": "phosphorus content in the faeces", "setting": "[2]; increased weekly, faeces collected over two days, FIG. 2.1", "value": "dose-dependently increased"}, {"measurement": "tolerance of the study animals", "setting": "[3]; even in extremely high doses", "value": "no negative effect"}, {"measurement": "palatability or acceptance of the feed or its safety compared to the control cats", "setting": "[3]; increasing doses vs control cats", "value": "no difference"}, {"measurement": "adverse events", "setting": "[3]; [4]", "value": "no limiting adverse events"}, {"measurement": "body weight", "setting": "[3]; [4]", "value": "no changes"}, {"measurement": "serum phosphate levels", "setting": "[3]; [4]", "value": "no changes"}]}]}
